From the NIST ThermoML archive (doi:10.1021/je9005882)
± gives the expanded uncertainty stated by the source.

Test: excess molar enthalpy (molar enthalpy of mixing); xn = mol fraction of the nth substance listed
Conditions: 303.15 K, 101 kPa, Liquid

Question: Which excess molar enthalpy (x1 = 0.062) does the source give for BrCBr [dibromomethane] + C[S+](C)[O-] here?
Answer: -0.0507 ± 0.00239 kcal/mol

Question: And the excess molar enthalpy (x1 = 0.1162)?
Answer: -0.0856 ± 0.00359 kcal/mol

Question: What about the excess molar enthalpy (x1 = 0.2682) of the same compound?
Answer: -0.175 ± 0.00669 kcal/mol

Question: And the excess molar enthalpy (x1 = 0.3407)?
Answer: -0.201 ± 0.00741 kcal/mol

Question: What about the excess molar enthalpy (x1 = 0.4342) of the same compound?
Answer: -0.227 ± 0.00837 kcal/mol

Question: What about the excess molar enthalpy (x1 = 0.503) of the same compound?
Answer: -0.24 ± 0.00884 kcal/mol

Question: What about the excess molar enthalpy (x1 = 0.5251) of the same compound?
Answer: -0.242 ± 0.00884 kcal/mol

Question: And the excess molar enthalpy (x1 = 0.6466)?
Answer: -0.228 ± 0.00837 kcal/mol

Question: And the excess molar enthalpy (x1 = 0.7285)?
Answer: -0.202 ± 0.00765 kcal/mol

Question: What about the excess molar enthalpy (x1 = 0.8234) of the same compound?
Answer: -0.152 ± 0.00574 kcal/mol

Question: What about the excess molar enthalpy (x1 = 0.8934) of the same compound?
Answer: -0.103 ± 0.00406 kcal/mol

Question: With BrCBr [dibromomethane] + O=C1CCCN1 as the compound, how does the excess molar enthalpy (x1 = 0.0955) read?
Answer: -0.0918 ± 0.00382 kcal/mol

Question: And the excess molar enthalpy (x1 = 0.151)?
Answer: -0.134 ± 0.00526 kcal/mol

Question: And the excess molar enthalpy (x1 = 0.2158)?
Answer: -0.177 ± 0.00669 kcal/mol

Question: What about the excess molar enthalpy (x1 = 0.2999) of the same compound?
Answer: -0.216 ± 0.00813 kcal/mol

Question: And the excess molar enthalpy (x1 = 0.4044)?
Answer: -0.246 ± 0.00908 kcal/mol

Question: What about the excess molar enthalpy (x1 = 0.5247) of the same compound?
Answer: -0.241 ± 0.00884 kcal/mol

Question: And the excess molar enthalpy (x1 = 0.613)?
Answer: -0.22 ± 0.00813 kcal/mol

Question: And the excess molar enthalpy (x1 = 0.7203)?
Answer: -0.174 ± 0.00669 kcal/mol

Question: What about the excess molar enthalpy (x1 = 0.7913) of the same compound?
Answer: -0.127 ± 0.00502 kcal/mol

Question: And the excess molar enthalpy (x1 = 0.8401)?
Answer: -0.0968 ± 0.00382 kcal/mol

Question: And the excess molar enthalpy (x1 = 0.9084)?
Answer: -0.0507 ± 0.00239 kcal/mol

Question: For BrCBr [dibromomethane] + c1ccccc1, which excess molar enthalpy (x1 = 0.0931) is on record?
Answer: 0.00956 ± 0.000956 kcal/mol

Question: And the excess molar enthalpy (x1 = 0.253)?
Answer: 0.0196 ± 0.00143 kcal/mol

Question: What about the excess molar enthalpy (x1 = 0.3416) of the same compound?
Answer: 0.0241 ± 0.00143 kcal/mol

Question: What about the excess molar enthalpy (x1 = 0.4618) of the same compound?
Answer: 0.0284 ± 0.00167 kcal/mol

Question: What about the excess molar enthalpy (x1 = 0.5464) of the same compound?
Answer: 0.0318 ± 0.00167 kcal/mol

Question: What about the excess molar enthalpy (x1 = 0.6705) of the same compound?
Answer: 0.0311 ± 0.00167 kcal/mol

Question: And the excess molar enthalpy (x1 = 0.7405)?
Answer: 0.0304 ± 0.00167 kcal/mol

Question: And the excess molar enthalpy (x1 = 0.8394)?
Answer: 0.0237 ± 0.00143 kcal/mol

Question: And the excess molar enthalpy (x1 = 0.9506)?
Answer: 0.0098 ± 0.000956 kcal/mol

Question: For BrCBr [dibromomethane] + CO, which excess molar enthalpy (x1 = 0.1506) is on record?
Answer: 0.0433 ± 0.00406 kcal/mol

Question: What about the excess molar enthalpy (x1 = 0.2779) of the same compound?
Answer: 0.0978 ± 0.00765 kcal/mol

Question: What about the excess molar enthalpy (x1 = 0.3148) of the same compound?
Answer: 0.113 ± 0.00837 kcal/mol

Question: What about the excess molar enthalpy (x1 = 0.4026) of the same compound?
Answer: 0.138 ± 0.01 kcal/mol

Question: What about the excess molar enthalpy (x1 = 0.504) of the same compound?
Answer: 0.153 ± 0.011 kcal/mol

Question: What about the excess molar enthalpy (x1 = 0.6195) of the same compound?
Answer: 0.169 ± 0.012 kcal/mol

Question: And the excess molar enthalpy (x1 = 0.7224)?
Answer: 0.187 ± 0.0131 kcal/mol

Question: And the excess molar enthalpy (x1 = 0.921)?
Answer: 0.154 ± 0.011 kcal/mol

Question: What about the excess molar enthalpy (x1 = 0.9515) of the same compound?
Answer: 0.111 ± 0.00837 kcal/mol

Question: What about the excess molar enthalpy (x1 = 0.9781) of the same compound?
Answer: 0.0583 ± 0.00502 kcal/mol
